# Test results taken from PMC6719172, “Inhibition of CpLIP2 Lipase Hydrolytic Activity by Four Flavonols (Galangin, Kaempferol, Quercetin, Myricetin) Compared to Orlistat and Their Binding Mechanisms Studied by Quenching of Fluorescence” (Molecules, 2019).
# What was measured:
# CpLIP2 lipase [1] = target: T1, CpLIP2 lipase (Candida parapsilosis, UniProt Q8NIN8); assay: Inhibition of CpLIP2 hydrolytic activity (ethyl oleate hydrolysis, GC); format: biochemical; conditions: for Ki: non-competitive or uncompetitive model
# T1 sequence (Q8NIN8 entry or part of it): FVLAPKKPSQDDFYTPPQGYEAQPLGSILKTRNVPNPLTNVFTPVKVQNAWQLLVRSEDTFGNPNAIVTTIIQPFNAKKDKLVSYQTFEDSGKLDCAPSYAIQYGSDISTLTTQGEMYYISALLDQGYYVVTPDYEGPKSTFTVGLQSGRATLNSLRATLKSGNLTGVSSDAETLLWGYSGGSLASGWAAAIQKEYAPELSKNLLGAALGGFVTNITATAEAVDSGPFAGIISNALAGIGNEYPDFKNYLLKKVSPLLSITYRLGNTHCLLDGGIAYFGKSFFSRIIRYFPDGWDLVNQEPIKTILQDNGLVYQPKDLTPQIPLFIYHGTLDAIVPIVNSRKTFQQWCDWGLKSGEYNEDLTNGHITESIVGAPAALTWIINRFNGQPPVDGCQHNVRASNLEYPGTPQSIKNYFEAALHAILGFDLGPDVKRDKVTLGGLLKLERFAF
# Protocol: The effect of inhibitor concentrations on the hydrolysis reaction rate in standard conditions was assumed to follow either a non-competitive or an uncompetitive model, corresponding to Equation (1):(1) Ki=I/ V0/Vi−1 where V0 and Vi are the initial rates of the reaction without or with inhibitor at concentration I.
# Standard CpLIP2 hydrolytic activity measurement. Hydrolysis activities were determined by measuring the initial rates of fatty acid and esters production (µmol·min^−1·mL^−1), using ethyl oleate (C18:1, EE) as substrates. Specific activity is the total activity expressed in µmol·min^−1·mL^−1 in relation to protein concentration (mg·mL^−1). Experiments were conducted as described by. Hydrolysis of ethyl oleate (EO) was performed in aqueous emulsions at 30 °C. This emulsion consisted of 100 µmol·mL^−1 EO emulsified by sonication (Branson Sonifier 250, 20 s, 200 watts, 145 µm amplitude) in an aqueous solution of 20 g·L^−1 poly vinyl alcohol. The reactions of hydrolysis were prepared in glass test tube by adding 100 μL of ethyl oleate emulsion to 800 µL of sodium phosphate buffer 50 mM, pH 6.5; then the solutions were incubated in water bath at 30 °C for 5 min. The reaction was started by the addition of 100 µL of enzyme solution of CpLIP2 with final concentration 3 µg·mL^−1 with activity 2000 U/mL.
# The enzyme solution was pre-incubated at 25 °C, with continuous stirring at 350 rpm. Pre-incubation was conducted with 1980 µL CpLIP2 lipase diluted in sodium NaH2PO4/Na2HPO4 phosphate buffer (50 mM, pH 6.5) containing 20 µL absolute EtOH at 2 different times (1 and 30 min). This pre-incubation phase was conducted in closed vials placed during 2 h on a Radleys StarFish Multi-Experiment Workstation. The reaction was conducted for 15 min at 30 °C, and then stopped by adding 950 µL of a mixture of ethanol/sulphuric acid (100:0.8, v/v). After the addition of 50 µL of internal standards (ethanolic solution of pentadecanoic acid and its ethyl and methyl esters, 1 µmol each), lipids were extracted from the mixture with 1 mL of hexane. Samples were then prepared for analyzing esters and free fatty acids by gas chromatography (GC) as follows. Hexane extract (200 µL) was reacted with 25 µL pyridine and 25 µL N-methyl-tri (methylsilyl)-trifluoroacetamide (MSTFA) as silylating agent. Mixtures were incubated in water bath at 50 °C for 20 min, and then samples were ready for analysis. Reaction rates were determined by the analysis of fat composition by capillary gas chromatography after 15 min reaction. It was checked that less than 30% of the total substrate was converted at the end of the 15 min reaction.
# A Shimadzu GC 2010 plus gas chromatograph equipped with a flame ionization detector, an automatic sampler (injected volume 0.1 μL) and a split/splitless injector was used for analysis. The capillary column was a DB-5ht (15 m × 0.25 mm, Phenomenex, Le Pecq, France). The helium carrier flow was 1 mL min^−1and the split ratio was 1:50. Temperature conditions were, for reactions with individual substrates: injector 280 °C, detector 290 °C, oven 200–225 °C at 10 °C min^−1 then to 260 °C at 35 °C·min^−1 for ethyl ester (EE) and fatty acid (FA) of C18:1. Calibration curves were realized using emulsions of mixtures of FA and monoesters prepared according to the same protocol, without enzyme and alcohol.
# In order to measure the residual lipase activity in the presence of potential inhibitors, the previous method was conducted in the presence and absence of the inhibitors. For each potential inhibitor, the lipase-catalyzed rate of hydrolysis was evaluated after a pre-incubation period between the lipase and the potential inhibitors, which were solubilized in absolute ethanol at 1% of final concentration. The preincubation was performed at 25 °C with continuous stirring at 350 rpm with different concentration of inhibitors (14, 27.5, 55 µM) which represented, respectively 25, 50, 100-fold the final lipase concentration (0.55 µM). […]
# CpLIP2 lipase [2] = target: T1, CpLIP2 lipase; assay: Fluorescence resonance energy transfer between CpLIP2 and flavonols (Förster theory); format: binding
# Source text: Fluorescence emission spectra of CpLIP2 lipase overlap the UV absorption spectrum of each flavonol studied, that may induce fluorescence resonance energy transfer (FRET) governed by the binding distance r between the protein behaving as energy donor and the flavonol energy acceptor. The binding distance r can be calculated via Förster theory with the following Equations (10) and (11):(10) E=1−F/ F0=R06/ R06+r^6 where E is the energy transfer efficiency, which is the photons fraction absorbed and transferred by the donor to the acceptor, F and F0 are the fluorescence intensities of donor (CpLIP2) in the presence or absence of acceptor (flavonol) at the same concentrations. The parameter r is the distance between acceptor and donor, and R0 is the Förster distance, which is the critical energy transfer distance when 50% of the excitation energy is transferred from the donor to the acceptor. […] The value of R0 ranges from 20–90 Å for biological macromolecules.
# CpLIP2 lipase [3] = target: T1, CpLIP2 lipase; assay: Fluorescence emission spectrum of CpLIP2 inhibited by THL; format: binding; conditions: 20-fold molar excess THL, pre-incubation at 25 °C for 30 min, excitation 285 nm
# Protocol: As mentioned above, a mixture of 300 µL was pipetted in each well. 190 µL sodium phosphate buffer 50 mM, pH 7.0 with 100 µL of NaCl: EtOH (8:2, v/v) solution. […] In parallel, native and denatured lipases without THL were incubated in the same conditions. Denaturation of lipase was done by heating in water bath at 100 °C for 20 min.
# [4] = target: C. rugosa commercial lipase; set-up: method as in doi:10.1016/j.molcatb.2006.02.012; conditions: cited from earlier work
compound,measurement,setting,value
"CCCCCCCCCCC[C@@H](C[C@@H]1OC(=O)[C@H]1CCCCCC)OC(=O)[C@H](CC(C)C)NC=O [THL, tetrahydrolipstatin, reference compound]",Ki,CpLIP2 lipase [1]; estimated after 1 min of pre-incubation,1.2 µM
same,Ki,CpLIP2 lipase [1]; estimated after 30 min of pre-incubation,0.6 µM
same,inhibition of CpLIP2 activity,"CpLIP2 lipase [1]; after 1 min pre-incubation, concentration not given",~100%
same,inhibition at 14 µM,CpLIP2 lipase [1]; read-out: inhibition of CpLIP2 catalytic activity,90%
same,remaining activity at 14 µM,"CpLIP2 lipase [1]; read-out: residual activity, 14 µM (25-fold molar excess), 1 min pre-incubation",17.7%
same,remaining activity at 27.5 µM,"CpLIP2 lipase [1]; read-out: residual activity, 27.5 µM (50-fold), 1 min pre-incubation",3.9%
same,remaining activity at 55 µM,"CpLIP2 lipase [1]; read-out: residual activity, 55 µM (100-fold), 1 min pre-incubation",2.3%
same,occurrence of FRET with CpLIP2 lipase,CpLIP2 lipase [2],no FRET occurred
same,blue shift of CpLIP2 fluorescence emission maximum,CpLIP2 lipase [3],4 nm
(±)-catechin [reference compound],IC50,[4],7500 µM
